Patent US20090054414A1, “Rufinamide for the Treatment of Post-Traumatic Stress Disorder” (SYNOSIA THERAPEUTICS, priority 2007, published 2009)

How the values were obtained:
[1] = test system: male OF-1 “intruder” mice; test: Intruder test (social withdrawal of intruder mice); format: in vivo, mouse
Method: Rufinamide, a Na-channel blocker and anti-epileptic agent, and carbamazepine, an anticonvulsant employed to treat bipolar disorder, were given to male OF-1 “intruder” in oral-doses of 1/3/10 mg/kg, 1 hr before the animals were confronted with an individually-housed, aggressive, male OF-1 resident mouse. […] This increase in social investigation (sociotropic effect) was accompanied by a decrease in the frequency and duration of defensive ambivalence probably through competitive inhibition. No signs of motor stimulation were detected.
The Intruder test duplicates a territorial encounter between a territory holder (aggressive male) and a subordinate “intruder” mouse. […] In this test the intruders receive the treatment whereas the residents remain untreated. (Dixon, A. K., Huber, C., Lowe, D. J. Clin. Psychiatry. 55 (9) Suppl B, 4-7 (1994)). For purposes of this study, rufinamide and carbamazepine were given orally to intruder mice 1 hr before being introduced singly to aggressive residents using doses of ⅓ and 10 mg/kg.
Over 60 ethological elements describing the social and non-social behaviour of mice based on the ethogram originally proposed by Grant and Mackintosh (Grant, E. C. Mackintosh, J. H. Behaviour 21: 246-259 (1963) ) and classified according to 9 behavioural categories (Dixon, A. K., Huber, C., Fisch, H. U. Adv. Study. Behaviour. 19: 171-204 (1990)) form the rodent ethogram as used in this test (FIG. 3).

Male OF1/IC mice = test: modified stress-induced hyperthermia (SIH) test; format: in vivo, mouse
Method: Rufinamide was tested in the modified stress-induced model of anxiety. The stress-induced hyperthermia test in mice is a paradigm developed several years ago to model the expression of autonomic hyperactivity in anxiety (Lecci A, Borsini F, Volterra G, Meli A. (1990) Pharmacological validation of a novel model of anticipatory anxiety in mice. Psychopharmacology; 101:255-61.; Spooren W P, Schoeffter P, Gasparini F, Kuhn R, Gentsch C. (2002) Pharmacological and endocrinological characterisation of stress-induced hyperthermia in singly housed mice using classical and candidate anxiolytics (LY314582, MPEP and NKP608). Eur J Pharmacol; 435:161-70.;Zethof T J J, van der Heyden J A M, Tolboom J B M, Olivier B (1994) Stress-induced hyperthermia in mice: a methodological study. Phys. Behav. 55:109-115.). […] Pharmacol Biochem Behav 72:179-188.
Male OF1/IC mice (MA205 Tiger code) were obtained several days prior to behavioural testing from Iffa Credo (L'Arbresle, France; 18-20 g) and housed in groups of 15 animals per cage (macrolon cages 42H26H15 cm, Type 4). The animals were individually housed (macrolon cage: 26H21H14 cm, Type 2) 24 h before testing. The day preceding the experiment, all cages were transferred to the testing room—and background noise (radio) was used during the light cycle. Both the animal room and the laboratory were temperature controlled and equipped with artificial illumination (L12:D12; lights on 06:00). Mice always had ad libitum access to water and food (Ecosan, Eberle Nafag A G, Gossau, Schweiz).
The test procedure for the modified stress-induced hyperthermia was adapted from van der Heyden et al. (1997). Rectal temperature was measured in each mouse twice, i.e. at t=0 min (T1) and t=+15 min (T2). The difference in temperature (T2-T1) was considered to reflect the stress-induced hyperthermia (SIH). […] In addition, a comparison between T1 in vehicle-treated mice and in animals treated with a given dose of a test-compound was used, to measure whether a test-compound affected body temperature alone.
Rectal temperature was measured to the nearest 0.1° C. by an ELLAB instruments (Copenhagen, Denmark) thermometer Model DM 852 by inserting a lubricated thermistor probe model PRA-22002-A (ELLAB, Copenhagen, Denmark) (2.2 mm diameter) 20 mm into the rectum; the mouse was hand held at the base of the tail during this determination and the thermistor probe was left in place for 15 s.
All drugs were made up fresh and dissolved in vehicle (0.5% methylcellulose) and administered per os (p.o.) in a volume of 10 ml/kg.
All data was analysed using a one-way analysis of variance (ANOVA) followed where appropriate by Dunnett test of multiple comparisons. The level of significance was set at p<0.05.

[2] = 1/3/10 mg/kg oral, 1 hr before encounter

NC(=O)c1cn(Cc2c(F)cccc2F)nn1 [rufinamide, 1-(2,6-difluorobenzyl)-1H-1,2,3-triazole-4-carboxamide]
non-social (NS) behaviour, frequency ([1]; 1/3/10 mg/kg oral, 1 hr before 6 minute encounter): significant, dose-related increase | social investigation (SI) ([1]; 1/3/10 mg/kg oral, 1 hr before 6 minute encounter, frequency and duration): increased, albeit in a bell-shaped manner with only changes at 3 mg/kg attaining significance | duration of defensive ambivalence (DA), arrested flight (AF) and escape [1, 2]: significantly reduced but not uniformly | frequencies of arrested flight and escape [1, 2]: only reduced significantly at 1 mg/kg | time spent in non-social activities [1, 2]: only weakly following suit | total number of ethological elements performed in the 6 minute encounter [1, 2]: increased in a dose-related manner | time spent in static flight (SF) postures ([1]; at 3 and 10 mg/kg oral, 1 hr before encounter): significant shortening | dose which is sociotropic in the intruder test ([1]; oral): 3 mg/kg | body temperature T2 (15 min after stress) (Male OF1/IC mice; first experiment, rufinamide 100 mg/kg p.o., p<0.001): significant lower body temperature than control animals | SIH response (T2-T1) (Male OF1/IC mice; first experiment, rufinamide 3, 10, 30, 100 mg/kg p.o., 60 min before T1, n=12): only the positive control CDZ (10 mg/kg, p.o.) reversed significantly | dose eliciting a robust reversal of the physiological response to an acute stressor (Male OF1/IC mice; p.o.): > 30 mg/kg | doses needed to induce robust anxiolytic-like effects in the SIH paradigm (Male OF1/IC mice; p.o.): 100 to 300 mg/kg | SIH response (T2-T1) (Male OF1/IC mice; pooled data of all 3 experiments, rufinamide 30, 50, 100, 200 and 300 mg/kg p.o.): significantly attenuated | body temperature T2 (15 min after stress) (Male OF1/IC mice; pooled data, rufinamide 25, 50, 100, 200 and 300 mg/kg): significant lower body temperature than control animals | SIH response (T2-T1) (Male OF1/IC mice; second experiment (0.3, 3, 30, 300 mg/kg tested), rufinamide 0.3, 30 and 300 mg/kg p.o. (p<0.05, p<0.01, p<0.001)): significantly attenuated | body temperature T2 (15 min after stress) (Male OF1/IC mice; second experiment, rufinamide at the highest doses (30 and 100 mg/kg, p.o.)): significant lower body temperature than control animals | SIH response (T2-T1) (Male OF1/IC mice; third experiment (25, 50, 100, 200 mg/kg tested), rufinamide 50 (p<0.05), 100 and 200 mg/kg p.o. (p<0.001)): significantly reduced | body temperature T2 (15 min after stress) (Male OF1/IC mice; third experiment, rufinamide 100 and 200 mg/kg p.o.): significant lower body temperature than control animals
